Experimental data taken from patent US12082907B2, “Systems, methods, and apparatus for multichannel imaging of fluorescent sources in real-time” (Memorial Sloan Kettering Cancer Center, priority 2013, dated 2024).

Test system: spontaneous melanoma miniswine model
Experiment: Pre-operative PET-CT SLN mapping in spontaneous melanoma miniswine model
Format: in vivo, Sinclair miniature swine
Source text: FIG. 6 depicts imaging of metastatic disease in a spontaneous melanoma miniswine model, in accordance with an embodiment of the present disclosure. ^124I-cRGDY-PEG-C dots and combined PET-optical imaging approaches can evaluate SLN mapping in a spontaneous melanoma miniswine model (Misfeldt, Vet. Immunol. Immunopathol. (1994); Oxenhandler, Am. J. Pathol. (1979); Millikan, J. Invest. Dermatol. (1974)) (Sinclair miniature swine, Sinclair Research Center). Image-guided metastatic disease detection, staging, and the assessment of differential tumor burden in SLN/s were evaluated in 4-10 kg miniswine (n=5) in conjunction with correlative histopathology. […]
FIGS. 7A-7I depict image-guided SLN Mapping in a spontaneous melanoma miniswine model using pre-operative PET imaging, in accordance with an embodiment of the present disclosure. These studies were expanded to include optical imaging using the portable ArteMIS™ fluorescence camera system, along with radiodetection using the gamma probe, for performing real-time assessments of the draining tumor lymphatics and nodal metastases. […] FIG. 7I depicts radioactivity levels of the primary tumor, SLN (in vivo, ex vivo), and a site remote from the primary tumor (i.e., background), using a handheld gamma probe. […]

Substance: 2-deoxy-2-[^18F]fluoro-D-glucose [^18F-FDG]
- discrimination of metastatic disease from inflammatory processes (miniswine with granulomatous inflammatory changes (n=3), PET-CT): failed to detect metastatic disease
- detection of nodal metastases on PET-CT (representative miniswine, neck nodes, dynamic imaging over 1 hour): clear absence of nodal metastases
